Test [1] relates to Human Leukocyte Lipoxygenase. The test is described as follows: Human Leukocyte Lipoxygenase Assay (LDA-H). Type of test: biochemical. The note with it: for IC50: acetone-pentane powder enzyme, 234 nm, 24° C., 5 min preincubation, read-out: Concentration (M) for 50.0 % Inhibition, IC (LDAH). On the procedure:
Human Leukocyte Lipoxygenase Assay (LDA-H)
Whole blood is collected from normal volunteers and spun in a refrigerated centrifuge for four minutes at 1°-6° C. at 3800 g. The buffy coat is manually separated and washed twice with chilled 0.83% NH4 Cl and centrifuged at 1000 RPM for ten minutes at 4° C. The white cell is suspended in culture media-EMEM supplemented with 6% Agamma human serum, tricine buffer, and neomycin and recentrifuged at 1000 g to yield a pellet containing the leukocytes used for the preparation of the acetone pentane powder.
The acetone-pentane powder is prepared utilizing a modification of the procedure reported for human platelet lipoxygenase. See Siegel, et al, Arachidonate Metabolism via Lipoxygenase and 12-L-hydroperoxy-5 Eicosatetraenoic Acid Peroxidase Sensitive to Antiinflammatory Drugs, Proc. Natl. Acad. Sci., USA 77: 308, 1980 and D. P. Wallach and V. R. Brown, A Novel Preparation of Human Platlet Lipoxygenase, Biochem. Biophys. Acta. 663: 361, 1981. Buffy coat prepared above is resuspended in 5-7 volumes of cold 0.1M Tris buffer, pH 7.4 containing 0.154M NaCl. The suspension is centrifuged at 13,300 g for ten minutes at 4° C. The resultant pellet is retained, resuspended in five volumes of cold acetone, recentrifuged at 13,300 g and resuspended in five volumes of cold pentane. The pentane suspension is centrifuged for ten minutes at 13,300 g to give a pellet which is dried in the cold under vacuum with periodic pulverization. The dry powder is stable for several weeks when stored at -80° C.
Enzyme stock solution is prepared in the following manner. About 15 mg of the acetone-pentane powder is suspended in 4 ml of cold tris buffer (0.1M, pH 7.4), allowed to stand for five minutes, and homogenized thoroughly. The homogenate is sonicated three times for 15 seconds each time, diluted to 7 ml with cold tris buffer (0.1M, pH 7.4), and centrifuged at 4° C. for 60 minutes at 13,300 g. the supernatent is retained and diluted to a total of 10 ml with cold tris buffer (0.1M, pH 7.4) to give the stock enzyme solution. Additional dilutions of 2-50 fold are done as necessary to locate optimal enzyme reaction rate in the assay described below.
Substrate solution is prepared at 100 μM or 1.0 μM concentrations of arachidonic acid or linoleic acid in 0.1M tris buffer, pH 9.0 containing 20% ethanol.
The enzyme reaction is followed spectrophotometrically by the appearance of a conjugated diene product at 234 nm. The reaction is monitored at 24° C. using a Gilford Model 2600 spectrophotometer. […] The effects of inhibitors on the reaction are compared with control reactions run under indentical conditions. Routinely, each compounds of the present invention is incubated with the enzyme for five minutes prior to addition of substrate to initiate the reaction. Inhibition expressed as IC50 as molar concentration of the compound required to reduce reaction rate to 50% control.

Test [2] deals with T1, leukotriene receptor (guinea pig lung membranes) (Cavia porcellus, UniProt Q2NNR5).
T1 construct: 20 mg original tissue wet weight of guinea pig lung; tissue Kuiper Rabbit Farm, Gary, IN (animals); host or cells: guinea pig lung, crude membranes
T1 sequence (Q2NNR5 1-340): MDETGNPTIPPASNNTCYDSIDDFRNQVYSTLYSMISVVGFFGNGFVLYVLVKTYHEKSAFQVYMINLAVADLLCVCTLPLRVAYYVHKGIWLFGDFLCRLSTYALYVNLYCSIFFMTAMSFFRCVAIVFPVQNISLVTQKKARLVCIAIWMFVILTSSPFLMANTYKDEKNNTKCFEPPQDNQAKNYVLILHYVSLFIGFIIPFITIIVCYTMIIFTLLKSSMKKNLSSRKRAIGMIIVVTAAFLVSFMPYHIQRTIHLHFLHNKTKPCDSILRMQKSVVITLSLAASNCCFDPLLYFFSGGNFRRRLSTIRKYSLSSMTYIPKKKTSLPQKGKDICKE
The test is described as follows: Binding of ^3 H-Leukotriene D4 to Guinea Pig Lung Membranes (RBL). The note with it: 0.2 nM ^3 H-LTD4, 60 min, 25° C.; read-out: Concentration (M) for 50.0 % Inhibition, IC (RBL). On the procedure:
Additionally, the activity, of the compounds having the Formula I of the present invention is determined by the well known leukotriene receptor binding assay that is described by R. F. Bruns, W. J. Thomsen and T. A. Pugsley in Life Sciences, 33, 645 (1983) or the Herxheimer in vivo antiallergy test described in H. Herxheimer, J. Physiol. (London), Vol. 177, p. 251 (1952).
Binding of ^3 H-Leukotriene D4 to Guinea Pig Lung Membranes (RBL)
[14,15-^3 H]leukotriene D4 (^3 H-LTD4) (25 Ci/mmol and 40 Ci/mmol) is purchased from New England Nuclear. Unlabeled LTC4 is a gift of Ono Pharmaceuticals (Japan). LTC4, LTD4, and LTE4 are purchased as methyl esters from Paesel GmbH (Frankfurt, W. Germany). Concentrations of the Paesel leukotrienes are calculated from their absorbance at 280 nm. Leukotriene esters are saponified overnight under N2 in 3.3% potassium carbonate at room temperature. Tritiated leukotrienes are stored as received from New England Nuclear at -20° C. Ono LTC4 (5 μg/ml) is stored at -60° C. in phosphate buffer pH 6.8. Saponified Paesel leukotrienes are stored at -60° C. in 3.3% potassium carbonate (pH 9.0-9.5). Aliquots of leukotrienes are taken from stock solutions immediately after thawing, after which the stock solutions are immediately refrozen. 2-Amino-2-(hydroxymethyl)-1,3-propanediol (Tris) is Sigma pH 7.7 pre-set crystals, and dimethylsulfoxide is Aldrich Gold Label.
Preparation of crude lung membranes
Two pairs of lungs (1.3 g) from freshly sacrificed 300 g male guinea pigs (older animals gave substantially lower binding) from Kuiper Rabbit Farm, Gary, IN are disrupted with a Polytron PT 10 (setting 4) for 30 seconds in 20 ml ice-cold 50 mM Tris adjusted with HCl to pH 7.7 at 25° C. (Tris buffer), filtered through a single layer of gauze to remove connective tissue, and centrifuged at 50,000 xg for ten min. The pellet is resuspended by homogenization with a Polytron in 20 ml Tris buffer, centrifuged at 50,000 xg for ten min., resuspended, incubated at 37° C. for 30 minutes, and centrifuged again. The final pellet is resuspended in Tris buffer and either used fresh or stored at -70° C.
All incubations are in triplicate for 60 minutes at 25° C. in 12×75 mm polystyrene tubes containing 1 ml Tris buffer with 20 mg original tissue wet weight of guinea pig lung nmembranes, 0.2 nM ^3 H-LTD4 (6,000-11,000 cpm), 10 mM MgCl2, and 1% dimethylsulfoxide Leukotrienes are diluted in Tris buffer. All other test compounds dissolved at 10 mM in dimethylsulfoxide on the same day as the experiment, and diluted in dimethylsulfoxide to 100× the final incubation concentration. Control incubations receive an equal volume (10 μl) of dimethylsulfoxide; the resulting concentration of dimethylsulfoxide had no effect on binding. ^3 H-LTD4 is diluted to 2 nM in Tris buffer. The membrane suspension (20 mg/0.89 ml) contains sufficient MgCl2 to give 10 mM final concentration in the incubation. […] All additions are performed at 0° C. Immediately after the last addition, the incubation is initiated by agitating the rack of tubes on a vortex mixer and warming to 25° C. in a water bath. Tubes are vortexed at least once more during the incubation to ensure that the membranes remained suspended. Incubations are terminated after 60 minutes by filtering under reduced pressure through 25 mm Whatman GF/B filters followed by rapid washing three times with 4 ml of ice-cold Tris buffer. Filters are added to scintillation vials with 8 ml Formula 947 (New England Nuclear), left overnight, shaken, and the radioactivity counted in a scintillation counter (efficiency 40%). Nonspecific binding, defined as binding of ^3 H-LTD4 in the presence of 100 nM LTC4, is 300-500 cpm for all lots of ^3 H-LTD4. Binding to the filters in the absence of tissue is about 100 cpm, and is not affected by unlabeled LTC4. Specific binding, defined as total binding minus nonspecific binding, varied considerably from lot to lot of ^3 H-LTD4. […]

The record followed here is patent publication US4868195A, “Novel enolamides, pharmaceutical compositions and methods of use thereof for activity as modulators of the arachidonic acid cascade” (Warner-Lambert Company, priority 1988, dated 1989).

Values joined by “and” are separate entries in the source; they are usually repeats but may differ in a detail not shown here. Equal entries are not always repeated.

For the compound `COc1ccc(CCc2ccc(NC(=O)C(=O)c3oc4cc(OC)c(OC)cc4c3O)cc2)cc1OC` [Example 115, 2-Benzofuranacetamide, N-[4-[2-(3,4-dimethoxyphenyl)ethyl]phenyl]-3-hydroxy-5,6-dimethoxy-α-oxo], the “% Inhibition (LDAH)” value in test [1] (Concentration 8.00 E -5 M) was 0.0%. In the case of `COc1ccc(CCc2ccc(NC(=O)C(=O)C3=C(O)c4ccccc4S(=O)(=O)C3)cc2)cc1OC` [Example 3, N-[4-[2-(3,4-Dimethoxyphenyl)ethyl)phenyl]-4-hydroxy-α-oxo-2H-1-benzothiopyran-3-acetamide, 1,1-dioxide], the “% Inhibition (LDAH)” value in test [1] (Concentration 1.00 E -5 M) and in test [1] (Concentration 2.50 E -5 M) was 0.0% in each case.

As to `COc1ccc(CCc2ccc(NC(=O)c3oc4ccc5ccccc5c4c3O)cc2)cc1OC` [Example 103, Naptho[2,1-b]furan-2-carboxamide, 1-hydroxy-N-[4-[2-(3,4-dimethoxyphenyl)ethyl]phenyl]], the IC50 in test [1] was determined as 1.1e-06 M.

On to `O=C(Nc1ccc(CCc2ccc(Cl)cc2)cc1)C(=O)C1=C(O)c2ccccc2SC1` [Example 4, N-[4-[2-(4-chlorophenyl)ethyl]phenyl]-4-hydroxy-α-oxo-2H-1-benzothiopyran-3-acetamide], for which the IC50 in test [1] was 4.5e-05 M. Still for that read-out and setting: the value for `O=C(O)c1ccc(CCc2ccc(NC(=O)C3CS(=O)(=O)c4ccccc4C3=O)cc2)cc1` (stereo not shown) [Example 12, 4-[2-[4-[[(3,4-Dihydro-4-oxo-2H-1-benzothiopyran-3-yl)carbonyl]amino]phenyl]ethyl]benzoic acid, 1,1-dioxide] was 3.4e-06 M. With `O=C(Nc1ccc(CCc2cc(O)c(O)c(O)c2)cc1)C1=C(O)c2ccccc2S(=O)(=O)C1` [Example 36], the “% Inhibition (LDAH)” value in test [1] (Concentration 2.50 E -5 M) is 0.0%. For `CCCCCCCCCCc1ccc(NC(=O)C(=O)C2=C(O)c3ccccc3S(=O)(=O)C2)cc1` [Example 9, N-(4-Decylphenyl)-4-hydroxy-α-oxo-2H-1-benzothiopyran-3-acetamide, 1,1-dioxide], in test [1], the IC50 stood at 7.7e-05 M.

Consider `CN(C)c1ccc(CCc2ccc(NC(=O)C3CS(=O)(=O)c4ccccc4C3=O)cc2)cc1` (stereo not shown) [Example 55], for which the IC50 in test [1] stood at 6.8e-05 M. Still for that read-out and setting: the value for “N-[4-[3-(3,4-Dihydroxyphenyl)propyl]phenyl]-3,4-dihydro-2H-1-benzothiopyran-3-carboxamide, 1,1-dioxide [Example 22]” was 1.3e-05 M; that for `Cc1cc2[nH]c(C(=O)C(=O)Nc3ccc(CCc4ccc(O)c(O)c4)cc3)c(O)c2cc1C` [Example 177, 1H-Indole-2-acetamide, N-[4-[2-(3,4-dihydroxyphenyl)ethyl]phenyl]-3-hydroxy-5,6-dimethyl-α-oxo] was 8e-05 M. As to `Nc1ccc(CCc2ccc(NC(=O)C3CS(=O)(=O)c4ccccc4C3=O)cc2)cc1` (stereo not shown) [Example 52, N-[4-[2-(4-Aminophenyl)ethyl]phenyl]-3,4-dihydro-4-oxo-2H-1-benzothiopyran-3-carboxamide, 1,1-dioxide], the IC50 in test [1] is 6e-05 M. Regarding `O=C(Nc1ccc(CCCCc2ccc(O)c(O)c2)cc1)C1CS(=O)(=O)c2ccccc2C1=O` (stereo not shown) [Example 23, N-[4-[4-(3,4-Dihydroxyphenyl)butyl]phenyl]-3,4-dihydro-4-oxo-2H-1-benzothiopyran-3-carboxamide, 1,1-dioxide], the “% Inhibition (LDAH)” value in test [1] (Concentration 2.50 E -5 M) was determined as 0.0%. On to `Nc1ccc(C=Cc2ccc(NC(=O)C3CS(=O)(=O)c4ccccc4C3=O)cc2)cc1` (stereo not shown) [Example 66, 2H-1-Benzothiopyran-3-carboxamide, N-[4-[2-(4-aminophenyl)ethenyl]phenyl]-3,4-dihydro-4-oxo-, 1,1-dioxide], for which the IC50 in test [2] turned out to be 3.15e-05 M. As to `O=C(Nc1ccc(CCc2cc(C(F)(F)F)cc(C(F)(F)F)c2)cc1)c1sc2ccccc2c1O` [Example 148, Benzo[b]thiophene-2-carboxamide, N-[4-[2-[3,5-bis(trifluoromethyl)phenyl]ethyl]phenyl]-3-hydroxy], the IC50 in test [2] is 0.0001 M. The same measure, in the same setting: the value for `O=C(Nc1ccc(CCc2ccc(Cl)c(Cl)c2)cc1)c1sc2ccccc2c1O` [Example 144] was 5e-06 M and 6.43e-06 M and 3.28e-06 M.
